The record followed here is patent US9573961B2, “Inhibitors of the renal outer medullary potassium channel” (Merck Sharp & Dohme Corp., priority 2012, dated 2017).

Where two headings read alike, the source gives them in different places.

For one experiment, the target named is Kir1.1 (ROMK1) (Homo sapiens (Human), UniProt P48048). Put plainly: Electrophysiology Assay (whole cell voltage clamp, IonWorks Quattro). The experiment is classed as cell-based. Conditions: block during voltage step to 0 mV. As to the method: Chinese hamster ovary cells stably expressing Kir1.1 channels were maintained in T-75 flasks in cell culture media in a humidified 10% CO2 incubator at 37° C. Prior to an experiment, Kir1.1 expression was induced by overnight incubation with 1 mM sodium butyrate. […] After centrifugation, the cell pellet was resuspended in approximately 4.0 mL of bath solution and placed in the IonWorks instrument. The intracellular solution consisted of (in mM): 80 K gluconate, 40 KCl, 20 KF, 3.2 MgCl2, 3 EGTA, 5 Hepes, pH 7.4. Electrical access to the cytoplasm was achieved by perforation in 0.13 mg/mL amphotericin B for 4 min. […] Voltage protocols and current recordings were performed using the IonWorks HT software/hardware system. Currents were sampled at 1 kHz. No correction for liquid junction potentials was used. The test pulse, consisting of a 100 ms step to 0 mV from a holding potential of −70 mV, followed by a 100 ms voltage ramp from −70 mV to +70 mV, was applied before and after a 6 min compound incubation period. Test compounds were prepared by diluting DMSO stock solutions into the bath solution at 3× the final concentration and placed in the instrument in 96-well polypropylene plates. Current amplitudes were measured using the IonWorks software.
Sequence of Kir1.1 (ROMK1) (P48048 whole entry): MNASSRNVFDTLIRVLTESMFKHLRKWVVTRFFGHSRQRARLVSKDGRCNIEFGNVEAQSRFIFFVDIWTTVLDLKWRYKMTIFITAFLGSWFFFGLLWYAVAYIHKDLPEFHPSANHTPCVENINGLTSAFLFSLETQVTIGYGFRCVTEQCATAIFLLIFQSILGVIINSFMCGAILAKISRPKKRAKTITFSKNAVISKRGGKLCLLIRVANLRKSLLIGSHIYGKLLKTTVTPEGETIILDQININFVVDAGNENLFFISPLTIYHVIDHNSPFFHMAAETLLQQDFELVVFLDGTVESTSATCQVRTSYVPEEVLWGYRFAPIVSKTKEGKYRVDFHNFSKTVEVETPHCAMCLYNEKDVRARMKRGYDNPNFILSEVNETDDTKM

Another experiment addresses hROMK (hKir1.1) (Homo sapiens (Human), UniProt P48048). Put plainly: Thallium Flux Assay (ROMK channel functional thallium flux, FLIPR-Tetra). It counts as cell-based. Conditions: HEK293 cells stably expressing hROMK (hKir1.1); read-out: Thallium Flux IC50. The procedure:
Cell Culture Conditions—HEK293 cells stably expressing hROMK (hKir1.1) were grown at 37° C. in a 10% CO2 humidified incubator in complete growth media: Dulbecco's Modified Eagle Medium supplemented with non-essential amino acids, Penicillin/Streptomycin/Glutamine, G418 and FBS. At >80% confluency, aspirate the media from the flask and rinse with 10 mL Calcium/Magnesium-free PBS. […] To dislodge the cell, gently bang the side of the flask with your hand. Triturate the cells completely and then transfer the cells to 25 mL complete media. Centrifuge at 1,500 rpm for 6 min followed by resuspension in complete growth media and determine cell concentration. […] Under ideal growth conditions and appropriate tissue culture practices, this cell line is stable for 40-45 passages.
FluxOR Kit Components (Invitrogen F10017) • FluxOR™ Reagent (Component A) • FluxOR™ Assay Buffer (Component B)—10× Concentrate • PowerLoad™ Concentrate (Component C)—100× Concentrate • Probenecid (Component D)—Lyophilized sample is kept at −20° C. Water soluble, 100× after solubilization in 1 mL water. […] Store at 4° C. • Thallium sulfate (Tl2SO4) Concentrate (Component G)—50 mM in water. Store at 4° C. • DMSO (dimethyl sulfoxide, Component H)—1 mL (100%)
Can be stored at room temperature • Stimulant Buffer (prepared at 5× final concentration in 1× FluxOR™ Chloride-Free Buffer): 7.5 mM Thallium sulfate and 0.75 mM Potassium sulfate (to give a final assay concentration of 3 mM Thallium/0.3 mM Potassium). Store at 4° C. when not in use. If kept sterile, this solution is good for months.
Assay Protocol—The ROMK channel functional thallium flux assay is performed in 384 wells, using the FLIPR-Tetra instrument. HEK-hKir1.1 cells are seeded in Poly-D-Lysine microplates and kept in a 37° C.-10% CO2 incubator overnight. On the day of the experiment, the growth media is replaced with the FluxOR™ reagent loading buffer and incubated, protected from light, at ambient temperature (23-25° C.) for 90 min. The loading buffer is replaced with assay buffer±test compound followed by 30 min incubation at ambient temperature, where the Thallium/Potassium stimulant is added to the microplate.
Step Protocol • 1. Seed HEK-hKir1.1 cells (50 μl at 20,000 cells/well) in 384-well PDL coated Microplates • 2. Allow cells to adhere overnight in humidified 37° C./10% CO2 incubator • 3. Completely remove cell growth media from microplate and replace with 25 μl loading buffer • 4. Incubate Microplate at room temperature, protected form light, for 90 min • 5. Remove loading buffer and replace with 25 μl 1× Assay Buffer±test compound. • 6. Incubate microplate at room temperature, protected from light, for 30 min • 7. […] Excitation=400 nm, Emission=460 & 580 nm. Collect data for ˜10 min.
Data Calculation—The fluorescence intensity of wells containing 3 μM of a standard control ROMK inhibitor of the present invention is used to define the ROMK-sensitive component of thallium flux. Fluorescence in the presence of test compounds is normalized to control values to provide % fluorescence change.

Setting [1] is: Electrophysiology IC50, Chinese hamster ovary cells stably expressing Kir1.1.
Setting [2] is: Chinese hamster ovary cells stably expressing Kir1.1, read-out: Electrophysiology IC50.

Sequence of hROMK (hKir1.1) (P48048 whole entry): as above

With `C[C@@H]1Cc2cc([C@@H]3CN4CCN(C(=O)Cc5c(F)cc(-n6cnnn6)cc5F)C[C@H]4CN3)ccc2C(=O)O1` [Example 105], the IC50 at Kir1.1 (ROMK1) (setting [1]) was 180 nM; on hROMK (hKir1.1), 360 nM.
On to `Cc1c([C@@H]2CN3CCN(C(=O)C4CCCc5cc(-n6cnnn6)ccc54)C[C@H]3CO2)csc1C#N` (single isomer, unassigned) [Example 96], for which the IC50 at Kir1.1 (ROMK1) (setting [2]) came out at 190 nM; at hROMK (hKir1.1) it was 460 nM.
For `Cc1c([C@@H]2CN3CCN(C(=O)Cc4cccc(-n5cnnn5)c4)C[C@@H]3CO2)ccc(F)c1C#N` [Example 56, 6-fluoro-2-methyl-3-[(3R,9aR)-8-{[3-(1H-tetrazol-1-yl)phenyl]acetyl}octahydropyrazino[2,1-c][1,4]oxazin-3-yl]benzonitrile], in that order: 60 nM and 200 nM.
The corresponding values for `Cc1c(C#N)cccc1[C@H]1CN2CCN(C(=O)Cc3ccc(-n4cnnn4)cc3)C[C@H]2CO1` [Example 43, 2-methyl-3-[(3S,9aS)-8-{[4-(1H-tetrazol-1-yl)phenyl]acetyl}octahydropyrazino[2,1-c][1,4]oxazin-3-yl]benzonitrile] are 170 nM and 140 nM.
The corresponding values for `Cc1c([C@@H]2CN3CCN(C(=O)Cc4cccc(-n5cnnn5)c4)C[C@H]3CO2)ccc(F)c1C#N` [Example 47, 6-fluoro-2-methyl-3-[(3R,9aS)-8-{[3-(1H-tetrazol-1-yl)phenyl]acetyl}octahydropyrazino[2,1-c][1,4]oxazin-3-yl]benzonitrile] are 90 nM and 300 nM.
On to `O=C(C1CCc2cc(-n3cnnn3)ccc21)N1CCN2C[C@@H](c3cccc(-n4cnnn4)c3)OC[C@@H]2C1` (single isomer, unassigned) [Example 80], for which the results for the IC50 on Kir1.1 (ROMK1) (setting [2]) and at hROMK (hKir1.1) were 280 nM and 130 nM, respectively.
For `Cc1c([C@@H]2CN3CCN(C(=O)Cc4cc(F)c(-n5cnnn5)cc4F)C[C@H]3CO2)ccc(F)c1C#N` [Example 55, 3-[(3R,9aS)-8-{[2,5-difluoro-4-(1H-tetrazol-1-yl)phenyl]acetyl}octahydropyrazino[2,1-c][1,4]oxazin-3-yl]-6-fluoro-2-methylbenzonitrile], the half-inhibitory concentration (IC50) at Kir1.1 (ROMK1) (setting [1]) worked out at 100 nM; at hROMK (hKir1.1) it was 130 nM.
As for `COc1ccc([C@H]2CN3CCN(C(=O)C4CCc5cc(-n6cnnn6)ccc54)C[C@H]3CO2)c(C)c1C#N` (stereo partly drawn) [Example 62, 6-methoxy-2-methyl-3-[(3S,9aS)-8-{[5-(1H-tetrazol-1-yl)-2,3-dihydro-1H-inden-1-yl]carbonyl}octahydropyrazino[2,1-c][1,4]oxazin-3-yl]benzonitrile], the results for the IC50 on Kir1.1 (ROMK1) (setting [2]) and at hROMK (hKir1.1) were 650 nM and 200 nM, respectively.
As to `Cc1c([C@H]2CN3CCN(C(=O)Cc4ccc(-n5cnnn5)cc4)C[C@H]3CO2)csc1C#N` [Example 40, 3-methyl-4-[(3S,9aS)-8-{[4-(1H-tetrazol-1-yl)phenyl]acetyl}octahydropyrazino[2,1-c][1,4]oxazin-3-yl]thiophene-2-carbonitrile], the IC50 was determined as 80 nM on Kir1.1 (ROMK1) (setting [1]) and 90 nM at hROMK (hKir1.1).
For the compound `O=C(C1CCc2cc(-n3cnnn3)ccc21)N1CCN2C[C@@H](c3ccc4nonc4c3)OC[C@@H]2C1` (stereo partly drawn) [Example 78, (3R,9aS)-3-(2,1,3-benzoxadiazol-5-yl)-8-{[5-(1H-tetrazol-1-yl)-2,3-dihydro-1H-inden-1-yl]carbonyl}octahydropyrazino[2,1-c][1,4]oxazine], the IC50 on Kir1.1 (ROMK1) (setting [2]) is 100 nM; on hROMK (hKir1.1), 210 nM.
In the case of `Cc1c([C@@H]2CN3CCN(C(=O)Cc4ccc(-n5cnnn5)cc4)C[C@@H]3CO2)ccc2c1COC2=O` [Example 13, 4-methyl-5-[(3R,9aR)-8-{[4-(1H-tetrazol-1-yl)phenyl]acetyl}octahydropyrazino[2,1-c][1,4]oxazin-3-yl]-2-benzofuran-1(3H)-one], the IC50 on Kir1.1 (ROMK1) (setting [1]) came to 150 nM; at hROMK (hKir1.1) it was 120 nM.
